In ChEMBL document CHEMBL1156805, “Development of (S)-N6-(2-(4-(isoquinolin-1-yl)piperazin-1-yl)ethyl)-N6-propyl-4,5,6,7-tetrahydrobenzo[d]-thiazole-2,6-diamine and its analogue as a D3 receptor preferring agonist: potent in vivo activity in Parkinson's disease animal models” (J Med Chem, 2010):

Experiments:
D(2) dopamine receptor [1] = biological target: D(2) dopamine receptor (Rattus norvegicus, UniProt P61169); experiment: biochemical
D(2) dopamine receptor [2] = biological target: T1, D(2) dopamine receptor (Homo sapiens, UniProt P14416)
T1 sequence (P14416 whole entry): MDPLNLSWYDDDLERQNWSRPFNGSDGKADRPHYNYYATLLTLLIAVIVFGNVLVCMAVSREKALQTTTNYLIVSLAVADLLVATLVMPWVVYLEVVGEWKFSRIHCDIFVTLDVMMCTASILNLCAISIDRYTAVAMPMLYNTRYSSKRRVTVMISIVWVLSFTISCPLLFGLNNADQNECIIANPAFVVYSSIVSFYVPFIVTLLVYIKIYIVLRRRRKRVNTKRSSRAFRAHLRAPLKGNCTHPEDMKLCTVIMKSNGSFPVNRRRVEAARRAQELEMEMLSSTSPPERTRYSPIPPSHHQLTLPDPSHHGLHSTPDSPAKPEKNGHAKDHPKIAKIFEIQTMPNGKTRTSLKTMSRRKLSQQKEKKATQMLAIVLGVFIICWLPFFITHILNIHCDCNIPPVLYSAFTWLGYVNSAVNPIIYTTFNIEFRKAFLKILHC

[3] = system: Radical scavenging activity
Description: Antioxidant activity assessed as DPPH radical scavenging activity

D(3) dopamine receptor [4] = biological target: T2, D(3) dopamine receptor (Rattus norvegicus, UniProt P19020); experiment: biochemical
T2 sequence (P19020 whole entry): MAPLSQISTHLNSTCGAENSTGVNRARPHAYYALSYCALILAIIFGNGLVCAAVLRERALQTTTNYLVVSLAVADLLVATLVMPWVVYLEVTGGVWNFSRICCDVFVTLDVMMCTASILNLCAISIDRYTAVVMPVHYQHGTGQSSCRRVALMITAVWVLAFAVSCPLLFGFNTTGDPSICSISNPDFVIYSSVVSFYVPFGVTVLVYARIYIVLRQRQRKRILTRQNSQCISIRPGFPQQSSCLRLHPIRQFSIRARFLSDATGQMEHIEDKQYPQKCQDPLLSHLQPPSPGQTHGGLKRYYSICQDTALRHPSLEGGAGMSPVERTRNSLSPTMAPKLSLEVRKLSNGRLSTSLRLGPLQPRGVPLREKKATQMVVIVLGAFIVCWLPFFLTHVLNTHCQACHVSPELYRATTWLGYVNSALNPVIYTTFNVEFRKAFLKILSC

D(3) dopamine receptor [5] = biological target: T3, D(3) dopamine receptor (Homo sapiens, UniProt P35462); experiment: biochemical
T3 sequence (P35462 whole entry): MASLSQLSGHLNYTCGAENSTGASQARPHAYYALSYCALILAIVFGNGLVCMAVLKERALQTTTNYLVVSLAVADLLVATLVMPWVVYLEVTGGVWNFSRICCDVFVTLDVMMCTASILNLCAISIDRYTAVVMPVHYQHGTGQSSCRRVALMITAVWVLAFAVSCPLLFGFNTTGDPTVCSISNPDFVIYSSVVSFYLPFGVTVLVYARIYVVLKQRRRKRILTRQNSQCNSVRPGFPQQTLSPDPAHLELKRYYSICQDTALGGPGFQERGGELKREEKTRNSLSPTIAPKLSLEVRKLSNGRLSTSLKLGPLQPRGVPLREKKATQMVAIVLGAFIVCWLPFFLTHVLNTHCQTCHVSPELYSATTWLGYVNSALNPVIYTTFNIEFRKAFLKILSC

D(3) dopamine receptor [6] = biological target: T3, D(3) dopamine receptor
D(3) dopamine receptor [7] = biological target: T2, D(3) dopamine receptor
D(2) dopamine receptor [8] = biological target: T1, D(2) dopamine receptor; experiment: Agonist activity at human dopamine D2L receptor expressed in CHO cells assessed as stimulation of [35S]GTPgamma binding relative to 1 mM dopamine; format: functional, cell-based
D(2) dopamine receptor [9] = biological target: T1, D(2) dopamine receptor; experiment: biochemical

Chain of D(2) dopamine receptor (Rattus norvegicus, UniProt P61169) (P61169 whole entry): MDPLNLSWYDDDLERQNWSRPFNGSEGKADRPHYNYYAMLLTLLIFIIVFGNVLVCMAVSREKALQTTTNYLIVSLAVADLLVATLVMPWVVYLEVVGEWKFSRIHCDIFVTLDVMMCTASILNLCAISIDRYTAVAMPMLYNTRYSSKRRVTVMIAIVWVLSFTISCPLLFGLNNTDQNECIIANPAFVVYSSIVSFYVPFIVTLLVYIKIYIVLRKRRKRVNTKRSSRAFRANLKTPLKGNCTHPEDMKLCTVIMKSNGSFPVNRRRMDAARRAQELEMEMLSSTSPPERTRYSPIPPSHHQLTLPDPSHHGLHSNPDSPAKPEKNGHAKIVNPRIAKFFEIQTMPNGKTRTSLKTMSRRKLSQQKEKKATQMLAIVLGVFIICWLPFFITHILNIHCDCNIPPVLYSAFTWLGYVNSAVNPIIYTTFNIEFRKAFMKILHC

Molecule `CCCN(CCN1CCN(c2cccc3ncccc23)CC1)C1CCc2ccc(O)cc2C1` (stereo not given) has a Ki (D(2) dopamine receptor [1]) of 5.22 nM.

`CCCN(CCN1CCN(c2ccc(-c3ccncc3)cc2)CC1)[C@H]1CCc2nc(N)sc2C1` was tested, and the Ki (D(2) dopamine receptor [1]) was 270 nM.

`CCCN(CCN1CCN(c2nccc3ccccc23)CC1)[C@H]1CCc2nc(N)sc2C1` showed an EC50 (D(2) dopamine receptor [2]) of 116 nM, an IC50 [3] of 45700 nM and a Ki (D(3) dopamine receptor [4]) of 2.23 nM. For the same molecule, the Ki (D(2) dopamine receptor [1]) was 269 nM and the EC50 (D(3) dopamine receptor [5]) was 0.52 nM.

`CCCN(CCN1CCN(c2ccc(-c3ccccc3)cc2)CC1)[C@H]1CCc2nc(N)sc2C1` was tested, and the EC50 (D(2) dopamine receptor [2]) was 19.9 nM and the EC50 (D(3) dopamine receptor [6]) was 0.085 nM.

In the case of `CCCN(CCN1CCN(C(=O)c2cc3ccccc3[nH]2)CC1)[C@H]1CCc2c(O)cccc2C1`, the Ki (D(3) dopamine receptor [7]) is reported as 0.57 nM.

For `CCCN(CCN1CCN(c2ccnc3ccccc23)CC1)C1CCc2ccc(O)cc2C1` (stereo not given), the Ki (D(3) dopamine receptor [4]) was 2.65 nM and the Ki (D(2) dopamine receptor [1]) was 7.08 nM.

`CCCN(CCN1CCN(c2ccnc3ccccc23)CC1)[C@H]1CCc2nc(N)sc2C1` showed an Emax (D(2) dopamine receptor [8]) of 118%, a Ki (D(2) dopamine receptor [1]) of 109 nM and an EC50 (D(2) dopamine receptor [9]) of 77.2 nM. The EC50 (D(3) dopamine receptor [5]) was 0.493 nM.

Molecule `CCCN(CCN1CCN(c2cccc3ncccc23)CC1)[C@H]1CCc2nc(N)sc2C1` has an Emax (D(2) dopamine receptor [8]) of 104%, an IC50 [3] of 39700 nM and a Ki (D(2) dopamine receptor [1]) of 57.7 nM. It also gave an EC50 (D(2) dopamine receptor [9]) of 13.5 nM and an EC50 (D(3) dopamine receptor [5]) of 0.528 nM.

For `CCCN(CCN1CCN(c2ccc3ccccc3c2)CC1)C1CCc2ccc(O)cc2C1` (stereo not given), the Ki (D(2) dopamine receptor [1]) was 8.85 nM.

For `CCCN(CCN1CCN(c2nccc3ccccc23)CC1)C1CCc2ccc(O)cc2C1` (stereo not given), the Ki (D(2) dopamine receptor [1]) was 21.7 nM.

`CCCN(CCC)CCc1cccc2c1CC(=O)N2` [ROPINIROLE] showed an EC50 (D(2) dopamine receptor [9]) of 304 nM.

`CCCN(CCN1CCN(c2cccc3ccccc23)CC1)C1CCc2ccc(O)cc2C1` (stereo not given) gave a Ki (D(2) dopamine receptor [1]) of 13.5 nM.
